Assay results published in US20170137481A1, “Use of Cell-Permeable Peptide Inhibitors of the JNK Signal Transduction Pathway for the Treatment of Various Diseases” (Xigen Inflammation Ltd., priority 2014, published 2017).

Legend:
[1] = tested on: gerbil model of transient global ischemia; settings: cited from earlier work
[2] = tested on: primary embryonic cultures and differentiated PC12 cells; settings: after trophic withdrawal; cited from earlier work
[3] = tested on: rat model of diabetic nephropathy; assay: STZ rat model of diabetic nephropathy, chronic administration; type: in vivo; settings: XG-102 1, 2, 4 mg/kg iv weekly; Losartan 25 mg/kg po daily
From the text: Losartan has been used as a positive control. Seventy-four male Sprague-Dawley rats (200-250 g; including 4 spare animals) from Charles River (Margate, Kent) were used. […] The diet has been purchased from Research Diets, New Jersey, USA. […] Animals have been housed in pairs throughout the study. […] During the third week of habituation, a blood sample has been taken from the lateral tail vein in the freely fed state using a hand-held glucose meter (One Touch Ultra 2). Blood sampling began at approximately 09:00. […] About 40 animals have been assigned to Cohort A and the remaining 30 to Cohort B, balanced as far as possible for body weight, plasma glucose and food and water intake. […] In all groups, food and water intake have been determined twice weekly (on the day of iv dosing and on water refill days. Blood glucose has been determined monthly. Samples were collected as detailed previously by glucometer (One Touch Ultra2). Blood samples have been taken in the freely fed state (beginning at approx. 09:00). Animals have been dosed immediately afterwards by the respective route to a timed schedule. Subsequent to dosing, each animal has been placed in a metabolism cage with free access to food and water for a 24 h period. To reduce evaporation, the glass urine collectors have been placed in a polystyrene container (Sca-online, UK) which was filled with ice. […]

In the case of `N#CC(c1ccnc(NCCc2cccnc2)n1)c1nc2ccccc2s1` (stereo not drawn) [AS601245], the “delayed loss of hippocampal CA1 neurons” value [1] is given as “significant protection against the delayed loss of hippocampal CA1 neurons”.
In the case of `CCSCc1ccc2c(c1)c1c3c(c4c5cc(CSCC)ccc5n5c4c1n2[C@H]1C[C@](O)(C(=O)OC)[C@]5(C)O1)CNC3=O` [CEP-1347], the neuronal survival [2] is listed as “promotes neuronal survival”.
For `CCCCc1nc(Cl)c(CO)n1Cc1ccc(-c2ccccc2-c2nn[nH]n2)cc1` [Losartan], the “body weight versus vehicle-treated STZ rats” value [3] was “significantly lower”.
